# Where a SMILES comes first, the peptide text is derived from it. The star is where a group is joined. X1 = CCCN1C(=O)C2NC(c3ccc(OCC(=O)NCCNC(=O)C(N)CC(=O)*)cc3)=NC2N(CCC)C1=O; X2 = O=C(Cc1ccc(Nc2ncnc3c2ncn3[C@@H]2O[C@H](CO)[C@@H](O)[C@H]2O)cc1)*
# How the values were obtained:
# Substance-P receptor = Substance-P receptor (Rattus norvegicus, UniProt P14600); experiment: Ability to inhibit the binding of [125I]physalaemin to the SP receptors in rat telencephalon slices
# Adenosine receptor = Adenosine receptor (Rattus norvegicus, UniProt P29276+P25099+P30543+P28647); experiment: Ability to inhibit the binding of [3H]N6-phenylisopropyl adenosine to adenosine receptor in rat cerebral cortex membranes; type: cell membranes, Membrane
# Substance-P receptor, sequence (P14600 whole entry): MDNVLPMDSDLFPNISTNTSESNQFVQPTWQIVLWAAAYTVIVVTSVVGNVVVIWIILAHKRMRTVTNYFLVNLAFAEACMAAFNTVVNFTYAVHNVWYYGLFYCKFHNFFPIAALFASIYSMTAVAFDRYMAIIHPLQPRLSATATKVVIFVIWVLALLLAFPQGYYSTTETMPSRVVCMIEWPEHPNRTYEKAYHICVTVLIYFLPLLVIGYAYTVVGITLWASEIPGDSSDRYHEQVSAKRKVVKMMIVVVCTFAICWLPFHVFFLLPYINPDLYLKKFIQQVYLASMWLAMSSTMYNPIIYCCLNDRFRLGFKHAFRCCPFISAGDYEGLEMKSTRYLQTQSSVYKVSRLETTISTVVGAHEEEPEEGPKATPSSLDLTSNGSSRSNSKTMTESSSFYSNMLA
Compound,Ki (Substance-P receptor) [nM],Ki (Adenosine receptor) [nM]
CSCC[C@H](NC(=O)[C@H](CC(C)C)NC(=O)CNC(=O)[C@H](Cc1ccccc1)NC(=O)[C@@H](N)Cc1ccccc1)C(N)=O,> 10000,–
CSCC[C@@H](NC(=O)[C@H](CC(C)C)NC(=O)CNC(=O)[C@H](Cc1ccccc1)NC(=O)[C@@H](N)Cc1ccccc1)C(N)=O,–,> 30000
CCCN1C(=O)C2NC(c3ccc(OCC(=O)NCCNC(=O)C(N)CC(=O)N[C@@H](Cc4ccccc4)C(=O)N[C@@H](Cc4ccccc4)C(=O)NCC(N)=O)cc3)=NC2N(CCC)C1=O (stereo not given in full),> 10000,30
CCCN1C(=O)C2NC(c3ccc(OCC(=O)NCCNC(=O)CN)cc3)=NC2N(CCC)C1=O (stereo not given),> 10000,2.1
CCCN1C(=O)C2NC(c3ccc(OCC(=O)NCCN)cc3)=NC2N(CCC)C1=O (stereo not given),> 10000,1.2
CNC(=O)Cc1ccc(Nc2ncnc3c2ncn3C2O[C@H](CO)[C@@H](O)[C@H]2O)cc1 (stereo not given in full),> 10000,–
H-QQFFGLM-NH2,180,–

# Next, values leading:
Ki (Substance-P receptor) [nM],Ki (Adenosine receptor) [nM],Compound
> 10000,–,CSCC[C@H](NC(=O)[C@H](CC(C)C)NC(=O)CNC(=O)[C@H](Cc1ccccc1)NC(=O)[C@H](Cc1ccccc1)NC(C)=O)C(N)=O
–,> 30000,CSCC[C@@H](NC(=O)[C@H](CC(C)C)NC(=O)CNC(=O)[C@H](Cc1ccccc1)NC(=O)[C@H](Cc1ccccc1)NC(C)=O)C(N)=O
–,4.3,CCCN1C(=O)C2NC(c3ccc(OCC(=O)NCCNC(=O)C(N)CC(N)=O)cc3)=NC2N(CCC)C1=O (stereo not given)
–,210,O=C(O)Cc1ccc(Nc2ncnc3c2ncn3C2O[C@H](CO)[C@@H](O)[C@H]2O)cc1 (stereo not given in full)
300,35,CCCN1C(=O)C2NC(c3ccc(OCC(=O)NCCNC(=O)C(N)CC(=O)N[C@@H](Cc4ccccc4)C(=O)N[C@@H](Cc4ccccc4)C(=O)NCC(=O)N[C@@H](CC(C)C)C(=O)N[C@@H](CCSC)C(N)=O)cc3)=NC2N(CCC)C1=O (stereo not given in full) (X1-FFGLM-NH2)
2000,16,CSCC[C@H](NC(=O)[C@H](CC(C)C)NC(=O)CNC(=O)[C@H](Cc1ccccc1)NC(=O)[C@H](Cc1ccccc1)NC(=O)Cc1ccc(Nc2ncnc3c2ncn3[C@@H]2O[C@H](CO)[C@@H](O)[C@H]2O)cc1)C(N)=O (X2-FFGLM-NH2)
–,> 30000,CSCC[C@H](NC(=O)[C@H](CC(C)C)NC(=O)CNC(=O)[C@H](Cc1ccccc1)NC(=O)[C@H](Cc1ccccc1)NC(=O)[C@H](CCC(N)=O)NC(=O)[C@H](CCC(N)=O)NC(=O)[C@@H]1CCCN1C(=O)[C@H](CCCCN)NC(=O)[C@@H]1CCCN1C(=O)[C@@H](N)CCCN=C(N)N)C(N)=O [SUBSTANCE P]
450,–,H-QFFGLM-NH2
